Measurements published in EP2794556B1, “BIS-(ARYL/HETEROARYL)-METHYLENE COMPOUNDS, PHARMACEUTICAL COMPOSITIONS CONTAINING SAME AND THEIR USE FOR TREATING CANCER” (Gleason, James L., priority 2011, dated 2013).

Tests used:
[1] = system: SK-MEL-28; experiment: NCI 60 cell panel
[2] = system: SCC4 cells; experiment: EdU cell growth assay
Description: EdU cell growth assay. Click-iT EdU Alexa Fluor high-throughput imaging (HCS) assay for cell proliferation. HCS assays were performed on AT84 mouse squamous carcinoma cell line (ATCC) following the manufacturer's instruction (Molecular Probes, Invitrogen). […] All samples were in triplicate.

[3] = system: UACC-257; experiment: NCI 60 cell panel
[4] = system: A549/A/TCC; experiment: NCI 60 cell panel
[5] = system: RPMI-8226; experiment: NCI 60 cell panel
[6] = system: U251; experiment: NCI 60 cell panel
[7] = system: HCC-2998; experiment: NCI 60 cell panel
[8] = system: NCI-H226; experiment: NCI 60 cell panel
[9] = system: 60 cell panel of human carcinoma cell lines; experiment: NCI 60 cell panel, summary in text; type: cell-based
[10] = system: IGROVI; experiment: NCI 60 cell panel
[11] = system: LOX IMVI; experiment: NCI 60 cell panel
[12] = system: UO-31; experiment: NCI 60 cell panel
[13] = system: SK-OV-3; experiment: NCI 60 cell panel
[14] = system: NCI-H522; experiment: NCI 60 cell panel
[15] = system: COLO 205; experiment: NCI 60 cell panel
[16] = system: HT29; experiment: NCI 60 cell panel
[17] = system: 786-0; experiment: NCI 60 cell panel
[18] = system: NCI-H460; experiment: NCI 60 cell panel
[19] = system: HCT-15; experiment: NCI 60 cell panel
[20] = system: ACHN; experiment: NCI 60 cell panel
[21] = system: MALME-3M; experiment: NCI 60 cell panel
[22] = system: SK-MEL-5; experiment: NCI 60 cell panel
[23] = system: NCI/ADR-RES; experiment: NCI 60 cell panel
[24] = system: SR; experiment: NCI 60 cell panel
[25] = system: UACC-62; experiment: NCI 60 cell panel
[26] = system: HOP-92; experiment: NCI 60 cell panel
[27] = system: HL-60(TB); experiment: NCI 60 cell panel
[28] = system: T-47D; experiment: NCI 60 cell panel
[29] = system: OVCAR-4; experiment: NCI 60 cell panel
[30] = system: HOP-62; experiment: NCI 60 cell panel

Which results are given for `CCC(CC)(c1ccc(OCC(=O)NO)c(C)c1)c1ccc(OCC(O)C(C)(C)C)c(C)c1` (racemic) [JF-B01, N-Hydroxy-2-(4-(3-(4-(2-hydroxy-3,3-dimethylbutoxy)-3-methylphenyl)pentan-3-yl)-2-methylphenoxy)acetamide]?
GI50 ([1]; Homo sapiens, SK-MEL-28): 4.75 µM; CC50 ([1]; Homo sapiens, SK-MEL-28, read-out: LC50): 42.5 µM; TGI ([1]; Melanoma, SK-MEL-28): 1.75E-5; inhibition of proliferation, EdU incorporation ([2]; 1,25D-resistant SCC4 cells, Fig. 2e, f): completely; EdU incorporation at higher concentrations ([2]; SCC4 cells, higher concentrations): completely abolished EdU incorporation; GI50 ([3]; Homo sapiens, UACC-257): 3.34 µM; CC50 ([3]; Homo sapiens, UACC-257, read-out: LC50): 38.8 µM; TGI ([3]; Melanoma, UACC-257): 1.27E-5; GI50 ([4]; Homo sapiens, A549): 3.62 µM; CC50 ([4]; Homo sapiens, A549, read-out: LC50): 40.8 µM; TGI ([4]; Non-Small Cell Lung Cancer, A549/A/TCC): 1.43E-5; GI50 ([5]; Homo sapiens, RPMI-8226): 1.12 µM; CC50 ([5]; Homo sapiens, RPMI-8226, read-out: LC50): 82.5 µM; TGI ([5]; Leukemia, RPMI-8226): 8.68E-6; TGI ([6]; CNS Cancer, U251): 1.23E-5; GI50 ([6]; Homo sapiens, U-251): 2.34 µM; CC50 ([6]; Homo sapiens, U-251, read-out: LC50): 40 µM; TGI ([7]; Colon Cancer, HCC-2998): 1.55E-5; GI50 ([7]; Homo sapiens, HCC 2998): 4.23 µM; CC50 ([7]; Homo sapiens, HCC 2998, read-out: LC50): 41.2 µM; GI50 ([8]; Homo sapiens, NCI-H226): 1.98 µM; CC50 ([8]; Homo sapiens, NCI-H226, read-out: LC50): 33 µM; TGI ([8]; Non-Small Cell Lung Cancer, NCI-H226): 1.07E-5; antiproliferative activity ([9]; all cell lines of the panel): antiproliferative activity in all cell lines; full growth inhibition ([9]; melanoma cell lines, 8 out of 9 cell lines): ≤ 7 µM; GI50 ([10]; Homo sapiens): 2.08 µM; CC50 ([10]; Homo sapiens, read-out: LC50): 19.2 µM; TGI ([10]; Ovarian Cancer, IGROVI): 5.25E-6; GI50 ([11]; Homo sapiens): 0.183 µM; CC50 ([11]; Homo sapiens, read-out: LC50): 0.602 µM; TGI ([11]; Melanoma): 3.32E-7; GI50 ([12]; Homo sapiens, UO-31): 1.92 µM; CC50 ([12]; Homo sapiens, UO-31, read-out: LC50): 26.2 µM; TGI ([12]; Renal Cancer, UO-31): 6.95E-6; GI50 ([13]; Homo sapiens, SK-OV-3): 12.2 µM; CC50 ([13]; Homo sapiens, SK-OV-3, read-out: LC50): 49.6 µM; TGI ([13]; Ovarian Cancer, SK-OV-3): 2.46E-5; GI50 ([14]; Homo sapiens, NCI-H522): 0.196 µM; CC50 ([14]; Homo sapiens, NCI-H522, read-out: LC50): 19.5 µM; TGI ([14]; Non-Small Cell Lung Cancer, NCI-H522): 5.18E-7; TGI ([15]; Colon Cancer, COLO 205): 5.94E-6; GI50 ([15]; Homo sapiens, COLO 205): 2.33 µM; CC50 ([15]; Homo sapiens, COLO 205, read-out: LC50): 20.3 µM; TGI ([16]; Colon Cancer, HT29): 1.00E-5; GI50 ([16]; Homo sapiens, HT-29): 1.93 µM; CC50 ([16]; Homo sapiens, HT-29, read-out: LC50): 31.7 µM; GI50 ([17]; Homo sapiens, 786-0): 11.3 µM; CC50 ([17]; Homo sapiens, 786-0, read-out: LC50): 51.3 µM; TGI ([17]; Renal Cancer, 786-0): 2.41E-5; GI50 ([18]; Homo sapiens, NCI-H460): 1.6 µM; CC50 ([18]; Homo sapiens, NCI-H460, read-out: LC50): 9.51 µM; TGI ([18]; Non-Small Cell Lung Cancer, NCI-H460): 3.90E-6; TGI ([19]; Colon Cancer, HCT-15): 1.12E-5; GI50 ([19]; Homo sapiens, HCT-15): 1.94 µM; CC50 ([19]; Homo sapiens, HCT-15, read-out: LC50): 33.6 µM; GI50 ([20]; Homo sapiens): 3.2 µM; CC50 ([20]; Homo sapiens, read-out: LC50): 35.6 µM; TGI ([20]; Renal Cancer): 1.27E-5; GI50 ([21]; Homo sapiens, Malme-3M): 2.33 µM; CC50 ([21]; Homo sapiens, Malme-3M, read-out: LC50): 35.7 µM; TGI ([21]; Melanoma, MALME-3M): 1.07E-5; GI50 ([22]; Homo sapiens, SK-MEL-5): 1.39 µM; CC50 ([22]; Homo sapiens, SK-MEL-5, read-out: LC50): 5.58 µM; TGI ([22]; Melanoma, SK-MEL-5): 2.79E-6; GI50 ([23]; Homo sapiens): 4.39 µM; CC50 ([23]; Homo sapiens, read-out: LC50): 41.9 µM; TGI ([23]; Ovarian Cancer): 1.67E-5; GI50 ([24]; Homo sapiens): 1.21 µM; CC50 ([24]; Homo sapiens, read-out: LC50): 24.9 µM; TGI ([24]; Leukemia): 3.91E-6; GI50 ([25]; Homo sapiens, UACC-62): 1.68 µM; CC50 ([25]; Homo sapiens, UACC-62, read-out: LC50): 11.5 µM; TGI ([25]; Melanoma, UACC-62): 4.22E-6; GI50 ([26]; Homo sapiens, HOP-92): 3.08 µM; CC50 ([26]; Homo sapiens, HOP-92, read-out: LC50): 49.2 µM; TGI ([26]; Non-Small Cell Lung Cancer, HOP-92): 1.53E-5; GI50 ([27]; Homo sapiens, HL-60): 0.944 µM; CC50 ([27]; Homo sapiens, HL-60, read-out: LC50): 8.8 µM; TGI ([27]; Leukemia, HL-60(TB)): 2.93E-6; TGI ([28]; Breast Cancer, T-47D): 6.69E-6; GI50 ([28]; Homo sapiens, T47D): 2.21 µM; CC50 ([28]; Homo sapiens, T47D, read-out: LC50): 27.1 µM; GI50 ([29]; Homo sapiens, OVCAR-4): 1.88 µM; CC50 ([29]; Homo sapiens, OVCAR-4, read-out: LC50): 32 µM; TGI ([29]; Ovarian Cancer, OVCAR-4): 9.44E-6; GI50 ([30]; Homo sapiens, HOP-62): 3.69 µM; CC50 ([30]; Homo sapiens, HOP-62, read-out: LC50): 38.3 µM; TGI ([30]; Non-Small Cell Lung Cancer, HOP-62): 1.47E-5
